Test results taken from ChEMBL document CHEMBL2046329, “Furin inhibitors: importance of the positive formal charge and beyond” (Bioorg Med Chem, 2012).
Residues, ends and D or L forms follow the SMILES beside them.

Target: Furin (Homo sapiens, UniProt P09958)
Assay: Inhibition of furin

Sequence of Furin (P09958 whole entry): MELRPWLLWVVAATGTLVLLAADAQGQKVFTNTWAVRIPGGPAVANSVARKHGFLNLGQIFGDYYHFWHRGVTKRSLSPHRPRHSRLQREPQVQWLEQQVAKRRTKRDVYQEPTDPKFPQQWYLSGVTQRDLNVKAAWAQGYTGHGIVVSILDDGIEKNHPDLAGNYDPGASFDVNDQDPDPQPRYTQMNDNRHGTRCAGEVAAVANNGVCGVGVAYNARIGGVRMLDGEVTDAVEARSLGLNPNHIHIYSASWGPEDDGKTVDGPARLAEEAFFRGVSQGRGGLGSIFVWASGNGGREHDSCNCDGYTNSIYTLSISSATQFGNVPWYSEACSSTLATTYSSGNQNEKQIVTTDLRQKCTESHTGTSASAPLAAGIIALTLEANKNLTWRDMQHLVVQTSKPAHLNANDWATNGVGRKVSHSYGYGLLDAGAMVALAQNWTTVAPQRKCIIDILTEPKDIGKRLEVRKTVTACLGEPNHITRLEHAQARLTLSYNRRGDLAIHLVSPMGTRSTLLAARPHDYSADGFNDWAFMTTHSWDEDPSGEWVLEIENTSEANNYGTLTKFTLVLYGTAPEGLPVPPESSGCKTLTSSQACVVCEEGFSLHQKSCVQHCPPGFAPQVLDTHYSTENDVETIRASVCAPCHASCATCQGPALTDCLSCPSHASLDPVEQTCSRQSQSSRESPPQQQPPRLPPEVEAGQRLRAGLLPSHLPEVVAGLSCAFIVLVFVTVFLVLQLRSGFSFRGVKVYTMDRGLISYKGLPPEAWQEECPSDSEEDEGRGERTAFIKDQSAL

SMILES | Ki
N=C(N)NCCC[C@H](NC(=O)[C@H](CCCNC(=N)N)NC(=O)[C@H](CCCNC(=N)N)NC(=O)[C@@H](N)CCCNC(=N)N)C(=O)O (H-RRRR-OH) | 6400 nM
CC(C)[C@H](NC(=O)[C@H](CCCN=C(N)N)NCC(=O)Oc1ccccc1)C(=O)N[C@@H](CCCN=C(N)N)C(=O)NCCCN | 3020 nM
CC(C)[C@H](NC(=O)[C@H](CCCNC(=N)N)NCC(=O)Oc1ccccc1)C(=O)N[C@@H](CCCNC(=N)N)C(=O)NCCCCN | 7490 nM
CC(C)[C@H](NC(=O)[C@H](CCCNC(=N)N)NCC(=O)Oc1ccccc1)C(=O)N[C@@H](CCCNC(=N)N)C(=O)NC1CCNCC1 | 9710 nM
CC(=O)N[C@@H](CC(C)C)C(=O)N[C@@H](Cc1ccc(O)cc1)C(=O)N[C@@H](CCCN=C(N)N)C(=O)N[C@H](C(=O)N[C@@H](CCCCN)C(=O)N[C@@H](CCCN=C(N)N)C(N)=O)C(C)C (Ac-LYRVKR-NH2) | 3400 nM
CC(=O)N[C@@H](CC(C)C)C(=O)N[C@@H](CC(C)C)C(=O)N[C@@H](CCCN=C(N)N)C(=O)N[C@H](C(=O)N[C@@H](CCCCN)C(=O)N[C@@H](CCCN=C(N)N)C(=O)O)C(C)C | 3500 nM
CC(C)[C@H](NC(=O)[C@H](CCCNC(=N)N)NCC(=O)Oc1ccccc1)C(=O)N[C@@H](CCCNC(=N)N)C(=O)Nc1ccc(CNC(=N)N)cc1 | 1430 nM
CSCC[C@H](NC(=O)[C@H](CC(C)C)NC(C)=O)C(=O)N[C@@H](CCCNC(=N)N)C(=O)N[C@H](C(=O)N[C@@H](CCCCN)C(=O)N[C@@H](CCCNC(=N)N)C(N)=O)C(C)C (Ac-LMRVKR-NH2) | 1900 nM
CC(C)[C@H](NC(=O)[C@H](CCCN=C(N)N)NCC(=O)Oc1ccccc1)C(=O)N[C@@H](CCCN=C(N)N)C(=O)NCCCCCN=C(N)N | 1070 nM
CC(=O)N[C@@H](CC(C)C)C(=O)N[C@@H](CC(C)C)C(=O)N[C@@H](CCCN=C(N)N)C(=O)N[C@H](C(=O)N[C@@H](CCCCN)C(=O)N[C@@H](CCCN=C(N)N)C(N)=O)C(C)C | 1400 nM
CC(C)[C@H](NC(=O)[C@H](CCCN=C(N)N)NCC(=O)Oc1ccccc1)C(=O)N[C@@H](CCCN=C(N)N)C(=O)Nc1cccc(CN=C(N)N)c1 | 2730 nM
CC(C)[C@H](NC(=O)[C@H](CCCN=C(N)N)NCC(=O)Oc1ccccc1)C(=O)N[C@@H](CCCN=C(N)N)C(=O)Nc1cccc(CN)c1 | 1320 nM

These reach a lower Ki. Values come first.

Ki | SMILES
627 nM | CCc1ccc(NC(=O)[C@H](CCCNC(=N)N)NC(=O)[C@@H](NC(=O)[C@H](CCCNC(=N)N)NCC(=O)Oc2ccccc2)C(C)C)cc1
63 nM | CC(C)[C@H](NC(=O)[C@H](CCCNC(=N)N)NCC(=O)Oc1ccccc1)C(=O)N[C@@H](CCCNC(=N)N)C(=O)NCCCNC(=N)N
190 nM | CC(=O)N[C@@H](CC(C)C)C(=O)N[C@@H](CCCCN)C(=O)N[C@@H](CCCN=C(N)N)C(=O)N[C@H](C(=O)N[C@@H](CCCCN)C(=O)N[C@@H](CCCN=C(N)N)C(N)=O)C(C)C (Ac-LKRVKR-NH2)
1.6 nM | CCCCCCCCCC(=O)N[C@@H](CCCN=C(N)N)C(=O)N[C@H](C(=O)N[C@@H](CCCN=C(N)N)C(=O)Nc1ccc(C(=N)N)cc1)C(C)C
420 nM | CC(C)C[C@H](NC(=O)[C@@H](N)CC(C)C)C(=O)N[C@@H](CCCNC(=N)N)C(=O)N[C@H](C(=O)N[C@@H](CCCCN)C(=O)N[C@@H](CCCNC(=N)N)C(=O)O)C(C)C
3.3 nM | CCCCCCCCCC(=O)N[C@@H](CCCN=C(N)N)C(=O)N[C@H](C(=O)N[C@@H](CCCCN)C(=O)Nc1ccc(C(=N)N)cc1)C(C)C
1 nM | CC(=O)N[C@@H](CCCNC(=N)N)C(=O)N[C@H](C(=O)N[C@@H](CCCNC(=N)N)C(=O)Nc1ccc(C(=N)N)cc1)C(C)C
553 nM | CC(C)[C@H](NC(=O)[C@H](CCCNC(=N)N)NCC(=O)Oc1ccccc1)C(=O)N[C@@H](CCCNC(=N)N)C(=O)NCCCCCN
53 nM | CC(C)[C@H](NC(=O)[C@H](CCCN=C(N)N)NCC(=O)Oc1ccccc1)C(=O)N[C@@H](CCCN=C(N)N)C(=O)NC1CCN(C(=N)N)CC1
990 nM | N=C(N)NCCC[C@H](NC(=O)[C@H](CCCNC(=N)N)NC(=O)[C@H](CCCNC(=N)N)NC(=O)[C@H](CCCNC(=N)N)NC(=O)[C@@H](N)CCCNC(=N)N)C(=O)O (H-RRRRR-OH)
800 nM | CC(C)C[C@H](NC(=O)[C@@H](N)CC(C)C)C(=O)N[C@@H](CCCNC(=N)N)C(=O)N[C@H](C(=O)N[C@@H](CCCCN)C(=O)N[C@@H](CCCNC(=N)N)C(N)=O)C(C)C
78 nM | CC(C)[C@H](NC(=O)[C@H](CCCNC(=N)N)NCC(=O)Oc1ccccc1)C(=O)N[C@@H](CCCNC(=N)N)C(=O)NCCCCNC(=N)N
114 nM | NC(N)=NCCC[C@H](NC(=O)[C@H](CCCN=C(N)N)NC(=O)[C@H](CCCN=C(N)N)NC(=O)[C@H](CCCN=C(N)N)NC(=O)[C@H](CCCN=C(N)N)NC(=O)[C@@H](N)CCCN=C(N)N)C(=O)O
